According to US20220249599A1, “TREATMENT OF IMPLANTS WITH ENGINEERED ANTIMICROBIAL AMPHIPHILIC PEPTIDES” (priority 2018, published 2022):
Ends that are not written are not given here.

Assays:
[1] = test system: P. aeruginosa strains (PAO1 and 2 clinical isolates); type: cell-based; details: three P. aeruginosa strains, 0.5×MIC exposure
Text: Each antibiotic was compared for their propensity to select for bacterial resistance phenotypes in vitro.

S. aureus = experiment: Periprosthetic joint infection mouse model, implant biofilm CFU burden; type: in vivo; details: intraperitoneal delivery, versus untreated control mice
Experimental: Periprosthetic joint infection was modeled in a mouse by placing an intra-articular K-wire through the medullary canal of the proximal femur followed by intra-articular inoculation with S. aureus. Animals were treated systemically with an intraperitoneal delivery of cefazolin, rifampin, or the exemplary peptide of SEQ ID NO:1. Intraperitoneal delivery was chosen due to technical difficulties associated with intravenous delivery. Implant sonication and proximal femur homogenate were used to quantify viable bacteria.

[2] = test system: Escherichia coli ATCC 25922 (QC); type: cell-based; details: ATCC 25922
Experimental: (§1) Each peptide was formulated in PBS buffer prior to testing. Peptides of SEQ ID NO:5 and SEQ ID NO:8 were brought up in 100% DMSO with 0.002% polysorbate-80 at 1.28 mg/mL (40× the highest final test concentration of 32 mcg/mL). Final test concentration of DMSO was 2.5% in the assay at the first dilution for those two compounds.
(§2) Mueller Hinton II broth (MHB II; BD; Lot Nos. 6258541 and 7143896) was used for MIC testing of aerobic organisms. 0.002% polysorbate 80 (P80) was added to the test medium.
(§3) MIC values were determined using a broth microdilution procedure described by CLSI (1, 3). Automated liquid handlers (Multidrop 384, Labsystems, Helsinki, Finland; Biomek 2000 and Biomek FX, Beckman Coulter, Fullerton Calif.) were used to conduct serial dilutions and liquid transfers.
(§4) To prepare the drug mother plates, which would provide the serial peptide dilutions for the replicate daughter plates, the wells of columns 2-12 of standard 96-well microdilution plates (Costar 3795) were filled with 150 µl of the designated diluent for each row of peptide.
(§5) The test articles and comparator compounds ([…] at 40× the highest concentration to be tested) were dispensed into the appropriate wells in column 1. The Biomek 2000 was then used to make 2-fold serial dilutions in the mother plates from column 1 through column 11. The wells of Column 12 contained no drug and served as the organism growth control wells for the assay.
(§6) The daughter plates were loaded with 185 μL per well of MHB II using the Multidrop 384. The daughter plates were completed on the Biomek FX instrument which transferred 5 uL of peptide solution from each well of a mother plate to the corresponding well of each daughter plate in a single step. A standardized inoculum of each test organism was prepared per CLSI methods. The inoculum for each organism was dispensed into sterile reservoirs divided by length (Beckman Coulter), and the Biomek 2000 was used to inoculate the plates. Daughter plates were placed on the Biomek 2000 work surface in reverse orientation so that inoculation took place from low to high drug concentration.
(§7) Plates were stacked 3-4 high, covered with a lid on the top plate, placed in plastic bags, and incubated at 35° C. for 16 to 20 hrs. Following incubation, the microplates were removed from the incubator and viewed from the bottom using a plate viewer. […] The MIC was read and recorded as the lowest concentration of peptide that inhibited visible growth of the organism.

[3] = test system: Pseudomonas aeruginosa ATCC 27853 (non-MDR; QC); type: cell-based; details: ATCC 27853
Experimental: as §1, §2, §3, §4, §5, §6, §7

[4] = test system: Streptococcus pneumoniae ATCC 49619 (QC); type: cell-based; details: ATCC 49619
Experimental: as §1, §2, §3, §4, §5, §6, §7

[5] = test system: Enterococcus faecium ATCC 51559 (VRE); type: cell-based; details: ATCC 51559
Experimental: as §1, §2, §3, §4, §5, §6, §7

[6] = test system: Streptococcus pyogenes ATCC 49399; type: cell-based; details: ATCC 49399
Experimental: as §1, §2, §3, §4, §5, §6, §7

[7] = test system: Escherichia coli ATCC 35218 (ESBL); type: cell-based; details: ATCC 35218
Experimental: as §1, §2, §3, §4, §5, §6, §7

[8] = test system: Enterococcus faecalis ATCC 700802 (V583 VRE); type: cell-based; details: ATCC 700802
Experimental: as §1, §2, §3, §4, §5, §6, §7

[9] = test system: Staphylococcus aureus ATCC 43300 (MRSA); type: cell-based; details: ATCC 43300
Experimental: as §1, §2, §3, §4, §5, §6, §7

[10] = test system: Escherichia coli ATCC BAA-2471 (NDM-1); type: cell-based; details: ATCC BAA-2471
Experimental: as §1, §2, §3, §4, §5, §6, §7

[11] = test system: Acinetobacter baumannii ATCC 19606 (non-MDR); type: cell-based; details: ATCC 19606
Experimental: as §1, §2, §3, §4, §5, §6, §7

[12] = test system: Enterococcus faecalis ATCC 29212 (VSE; QC); type: cell-based; details: ATCC 29212
Experimental: as §1, §2, §3, §4, §5, §6, §7

[13] = test system: Klebsiella pneumoniae ATCC BAA-1705 (KPC); type: cell-based; details: ATCC BAA-1705
Experimental: as §1, §2, §3, §4, §5, §6, §7

[14] = test system: Pseudomonas aeruginosa ATCC BAA-2109 (MDR); type: cell-based; details: ATCC BAA-2109
Experimental: as §1, §2, §3, §4, §5, §6, §7

[15] = test system: Staphylococcus aureus NRS382 (USA100; HA-MRSA); type: cell-based; details: USA100
Experimental: as §1, §2, §3, §4, §5, §6, §7

[16] = test system: Staphylococcus aureus ATCC 29213 (MSSA; QC); type: cell-based; details: ATCC 29213
Experimental: as §1, §2, §3, §4, §5, §6, §7

[17] = test system: Acinetobacter baumannii ATCC BAA-1797 (MDR); experiment: microbe, parasite or virus in culture; type: cell-based; details: ATCC BAA-1797
Experimental: as §1, §2, §3, §4, §5, §6, §7

Molecule | MIC [2] [µg/mL] | MIC [3] [µg/mL] | MIC [4] [µg/mL] | MIC [5] [µg/mL] | MIC [6] [µg/mL] | MIC [7] [µg/mL] | MIC [8] [µg/mL] | MIC [9] [µg/mL] | MIC [10] [µg/mL] | MIC [11] [µg/mL] | MIC [12] [µg/mL] | MIC [13] [µg/mL] | MIC [14] [µg/mL] | MIC [15] [µg/mL] | MIC [16] [µg/mL] | MIC [17] [µg/mL] | Time to development of resistance (fold MIC>10) [1] [days] | Reduction of implant biofilm CFU burden (sonicate culture) (S. aureus)
CO[C@H]1/C=C/O[C@@]2(C)Oc3c(C)c(O)c4c(O)c(c(/C=N/N5CCN(C)CC5)c(O)c4c3C2=O)NC(=O)/C(C)=C\C=C\[C@H](C)[C@H](O)[C@@H](C)[C@@H](O)[C@@H](C)[C@H](OC(C)=O)[C@@H]1C [Rifampin] |  |  |  |  |  |  |  |  |  |  |  |  |  |  |  |  | ≤ 3 | comparable reduction in biofilms sonicate as compared to SEQ ID NO:1
IRRRRRRIRRRRRR [SEQ ID NO: 2] | 16 | >32 | >32 | 16 | 32 | 16 | >32 | 16 | 32 | 32 | >32 | >32 | 8 | 8 | 16 | >32 |  | 
LL-37 [LL37] |  |  |  |  |  |  |  |  |  |  |  |  |  |  |  |  | 9 | 

Now from value to molecule, other results behind:

MIC [2] [µg/mL] | MIC [3] [µg/mL] | MIC [4] [µg/mL] | MIC [5] [µg/mL] | MIC [6] [µg/mL] | MIC [7] [µg/mL] | MIC [8] [µg/mL] | MIC [9] [µg/mL] | MIC [10] [µg/mL] | MIC [11] [µg/mL] | MIC [12] [µg/mL] | MIC [13] [µg/mL] | MIC [14] [µg/mL] | MIC [15] [µg/mL] | MIC [16] [µg/mL] | MIC [17] [µg/mL] | Molecule | Time to development of resistance (fold MIC>10) [1] [days] | Reduction of implant biofilm CFU burden (sonicate culture) (S. aureus)
>32 | >32 | >32 | 16 | 16 | 32 | >32 | >32 | 16 | >32 | >32 | >32 | >32 | >32 | >32 | >32 | VVRVVRRVVRVVRR [SEQ ID NO: 7] |  | 
>32 | >32 | >32 | 0.25 | 16 | >32 | 4 | 32 | >32 | 32 | 4 | >32 | 16 | >32 | >32 | >32 | VVRVVRVVVRVVRVVVRVVRV [SEQ ID NO: 8] |  | 
2 | 16 | 8 | 0.5 | 4 | 1 | 4 | 0.5 | 1 | 0.5 | 2 | 4 | 8 | 0.5 | 0.5 | 0.5 | VWRWVRRVWRWVRR [SEQ ID NO: 6] |  | 
16 | >32 | 32 | 8 | 32 | 16 | 16 | 8 | 32 | 16 | 16 | >32 | 16 | 8 | 16 | 32 | VWRWVRRVWRWVRRVWRWVRR [SEQ ID NO: 5] |  | 
